In assay [1] the test system is p38. Description: Reported p38 inhibition (literature / PubChem). In kind it is biochemical. Particulars: 850nM vs 440nM; rebuttal letter. An excerpt: But as p38 can phosphorylate NLK, Myb and Raptor in vitro, we performed a series of experiments that indicate NLK-associated p38 is not contributing to substrate phosphorylation. We determined the IC50 values of a panel of eight p38 inhibitors against p38 and NLK in our in vitro kinase assays. For comparison, reported IC50 values from bioassay results submitted to the National Center for Biotechnology Information PubChem Database were tabulated.

In assay [2] the test system is p38. Particulars: reported, no reference given; read-out: reported IC50 against p38; cited from earlier work.
The target in assay [3] is T1, NLK (Homo sapiens, UniProt Q9UBE8).
T1 construct: NLK, p38, or ALK5 for in vitro kinase assays were immunopurified from Kp53A1 cells; endogenous in cells; immunoprecipitated with anti-NLK (Abcam AB97642)
T1 sequence (Q9UBE8 1-527): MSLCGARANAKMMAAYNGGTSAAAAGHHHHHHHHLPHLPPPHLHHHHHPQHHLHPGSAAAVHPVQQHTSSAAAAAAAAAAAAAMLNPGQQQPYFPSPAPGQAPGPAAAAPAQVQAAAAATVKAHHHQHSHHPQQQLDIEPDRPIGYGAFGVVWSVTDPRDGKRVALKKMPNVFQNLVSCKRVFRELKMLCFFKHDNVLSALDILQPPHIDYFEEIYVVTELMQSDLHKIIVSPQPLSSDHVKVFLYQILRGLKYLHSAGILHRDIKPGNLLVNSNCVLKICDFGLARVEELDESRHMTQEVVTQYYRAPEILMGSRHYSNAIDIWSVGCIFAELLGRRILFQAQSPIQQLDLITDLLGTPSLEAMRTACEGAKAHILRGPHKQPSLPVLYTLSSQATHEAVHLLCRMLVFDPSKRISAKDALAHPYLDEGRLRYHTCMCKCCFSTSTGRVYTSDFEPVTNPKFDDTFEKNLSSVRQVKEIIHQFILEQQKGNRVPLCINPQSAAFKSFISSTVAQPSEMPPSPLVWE
Description: NLK in vitro kinase assay (NLK, c-Myb, Raptor substrates). It counts as biochemical. Particulars: for inhibition of NLK-mediated phosphorylation of NLK substrates NLK, c-Myb and Raptor: added to activated NLK in vitro, Supplementary Fig. 1c. Here is the method: Equivalent protein was loaded between samples. b—blue Transduced progenitors were differentiated for 15 days and sorted for surface expression of CD235 + , CD41 + and CD11b + population NLK mRNA was assessed by qRT-PCR. c Control and shRPS19-transduced CB progenitors were differentiated for 10 days prior to separation into CD71^+ and CD71^- populations and assessed for pThr298-NLK phosphorylation by Western blot analysis. d—purple CB CD34 + progenitors were transduced with shRNA against luciferase (shLuc) or RPS19 (shRPS19) along with CFP-NLK and YFP-NLK and differentiated for 10 days. NLK dimerization was quantified by FRET. e—left panel NLK was immunoprecipitated from transduced differentiating CD71^+ and CD71^- populations after 10 days, and incubated in the presence of ATP, Mg^2+ and dephosphorylated NLK (i orange), c-Myb (ii—blue) and Raptor (iii—green) for 30 min at 37 °C. Phosphorylation was detected by a combination of anti^-phosphoserine-HRP and anti-phosphothreonine-HRP antibodies, or mouse anti-phosphoserine and anti-mouse-HRP antibodies. e—right panel For comparison, NLK in vitro kinase activity was assessed from CD235^+, CD41^+ and CD11b^+ populations enriched after identical treatments. f A panel of eight small molecule p38 inhibitors were titrated into in vitro kinase assays in the presence of activated NLK or p38 from stimulated Kp53A1 cells. The IC50 for NLK and p38 for each compound was calculated. The data are represented diagrammatically with IC50 values represented as vertical lines along a concentration gradient for NLK and p38. Kinase activity is represented as blue and the extent of inhibition is depicted in white. […] Bars represent means ± SD with individual data points overlaid. n = 3 independent experiments performed in triplicate.Statistics: two-tailed Student’s t test, significant *p < 0.05. Also see Supplementary Figs. 3 and 4. Source data are provided as a Source Data file. […] Inhibitors were added to cells at indicated concentrations with a final DMSO concentration of 0.5%. […] IC50 calculations were obtained using 8–9 concentrations of compound and generated using the IC50 Calculator software by AAT Bioquest®. NLK, p38, or ALK5 for in vitro kinase assays were immunopurified from Kp53A1 cells. NLK activation was induced by incubating cells at 32° for 24-48 h, p38 by stimulating with IL-3, IL-6, SCF, and Epo at the same concentrations used for differentiating erythroid progenitors.
For NLK kinase analysis, cultures were treated as indicated and lysed for 30 min at 4 °C in 750 μl of kinase lysis buffer (50 mM Tris [pH 7.4], 5 mM EDTA, 250 mM NaCl, 0.1% Triton X-100, 50 mM NaF, 0.1 trypsin inhibitor unit of aprotinin per ml, 50 μg of phenylmethylsulfonyl fluoride per ml, 100 μM sodium vanadate, 1 μg of leupeptin per ml). For TGFβR1 kinase analysis, cells were lysed in membrane kinase buffer (10 mM Tris-HCl (pH8.0), 140 mM NaCl, 300 mM KCl, 0.5% Triton X-100, and 0.5% sodium deoxycholate with complete protease inhibitor cocktail (Roche)). Extracts were clarified, and equivalent protein was incubated overnight at 4 °C with antibody (NLK: #AB97642; Abcam, TGFβR1: V22; Santa Cruz Biotechnology). Immune complexes were collected with Catch and Release® V2.0 Reversible Immunoprecipitation System and diluted in kinase buffer (25 mM Tris [pH 7.4], 10 mM MgCl2, 1 mM dithiothreitol). When cell numbers were limiting, NLK activity was amplified by adding 0.5 µg dephosphorylated NLK prior to performing kinase reaction. 50 μl of kinase buffer containing NLK or TGFβR1 sample and 5 μM ATP was incubated in the presence of biotinylated substrate (NLK, c-Myb, or Raptor for NLK and Smad2 or Smad3 for TGFβR1) immobilized on streptavidin-coated 96-well plates.

Like-named read-outs stand apart in the source and are kept apart here.

One may read the IC50 as the midpoint of a concentration-inhibition curve. Consider `Fc1ccc(Cl)cc1-c1nc(Nc2ccncc2)c2nccnc2n1` [SD208], for which the “reported p38 IC50 compared to observed NLK IC50” value in assay [1] came out at 2 fold. Moreover, the IC50 in assay [2] was 850 nM. In assay [3], the half-maximal inhibitory concentration (IC50) amounted to 435 nM; the “inhibition of NLK-mediated phosphorylation of NLK substrates NLK, c-Myb and Raptor” value is given as ~ 80%. In addition, the “SD208 concentration at which NLK activation was significantly inhibited in in vitro assays” value in assay [3] (rebuttal letter) is recorded as “below 0.1 uM”.

For `NC(=O)c1ccc(-c2nc(-c3ccc4c(c3)OCO4)c(-c3ccccn3)[nH]2)cc1` [SB431542], the IC50 in assay [2] was 9000 nM; in assay [3] (Supplementary Fig. 1e, read-out: IC50 against NLK) it was 1070 nM. For the same compound, the “inhibition of NLK-mediated phosphorylation of NLK substrates NLK, c-Myb and Raptor” value in assay [3] worked out at 55%.
